One experiment has as its system SW480. On the set-up: method as in earlier work. To be noted: 96 h incubation; ref 48 (ESI Ref. 1); cited from earlier work.
In a further experiment the test system is CH1/PA-1. Also noted: method as in Ref. 1 (ESI). To be noted: 96 h incubation; ref Ref. 1 (ESI); cited from earlier work.
In the next experiment the test system is TP53. Description: Immunofluorescence staining of TP53. The format is cell-based, human. To be noted: SW480, 24 h; 1a 1 μM; etoposide 100 nM. Here is the method:
Cell Signaling Technology (Danvers, MA, USA), respectively. Horseradish-peroxidase-linked secondary antibodies, anti-mouse IgG (Fc specific) antibody (#7076S) and anti-rabbit IgG antibody (#7074S) were purchased from Cell Signaling Technology (Danvers, MA, USA). Anti-ß-actin (AC-15) (A5441, 1:2000) was obtained from Sigma-Aldrich (St. Louis, MO, USA).
SW480 and CT26 cells were grown at a density of 6.7x10^4 cells/mL on 8-well glass coverslips (80841, ibidi GmbH, Gräfelfing, Germany) in 300 µL complete media. The next day, cells were treated with respective compounds for 24 h. Cells were fixed with 4%(v/v) paraformaldehyde for 15 min at RT, followed by washing, blocking and permeabilization with 5%(w/v) BSA and […]
(1 : 500) were diluted in 1% BSA-0.3% Triton-X-100 in PBS and incubated overnight at 4 °C.
One well was incubated without primary antibody as background control. Cells were washed and stained with secondary goat anti-mouse AlexaFlour-488 (1 : 500 dilution, A-11029, Thermo Fisher Scientific) or goat anti-rabbit AlexaFlour-488 (1 : 500 dilution, A-11034, Thermo Fisher Scientific) antibodies for 1 h at RT. Following, cells were stained with 0.2% Wheat Germ Agglutinin (WGA)-Rhodamine (RL-1022, Vector Laboratories, Inc.) and 0.1% DAPI (62248, Thermo Fisher Scientific) for staining of plasma membrane and nuclei, respectively, according to manufacturer’s recommendations. […]

For the next experiment, the system named is SW480 cancer cells. Description: Cell cycle analysis by flow cytometry (propidium iodide). The class given is cell-based, human. To be noted: 24 h; 1a 12.5 to 50 nM; gemcitabine 10 nM. In general terms: Flow cytometry measures light scatter and fluorescence of single cells or particles in a stream.

In publication PMC12320299 (Chemical Science, 2025) one finds IC50, TP53 immunofluorescence signal and cell cycle distribution data, which are given here for five molecules.

Where only a bound is given, the exact number is not on record here.

The IC50 is the concentration that gives 50% inhibition. Take `CCC1=C(O)C(=O)c2ccccc2C1=O` [a]: the IC50 in the experiment on SW480 was 100 ± 10 µM; with CH1/PA-1, 173 ± 10 µM.

For `O=C1C(O)=C(CN2CCOCC2)C(=O)c2ccccc21` [b, 3-morpholine naphthoquinone], the half-inhibitory concentration (IC50) in the experiment on SW480 is 160 ± 30 µM; with CH1/PA-1, above 200 µM.

For `N.N.[Cl][Pt][Cl]` [cisplatin, reference compound], the IC50 in the experiment with SW480 is 2.3 ± 0.2 µM; in the experiment with CH1/PA-1, 0.073 ± 0.001 µM.

In the case of `COc1cc([C@@H]2c3cc4c(cc3[C@@H](O[C@@H]3O[C@@H]5CO[C@@H](C)O[C@H]5[C@H](O)[C@H]3O)[C@H]3COC(=O)[C@H]23)OCO4)cc(OC)c1O` [etoposide, reference compound], in the experiment with TP53, the TP53 immunofluorescence signal entry is on record as “enhanced nuclear accumulation of TP53”.

Regarding `Nc1ccn([C@@H]2O[C@H](CO)[C@@H](O)C2(F)F)c(=O)n1` [gemcitabine, reference compound], the cell cycle distribution entry with SW480 cancer cells is on record as “G0/G1 arrest”.
